The results in this text go back to US9283277B2, “Methods and compositions for the treatment of obesity” (Children's Medical Center Corporation, priority 2008, dated 2016).

What all share (type): in vivo
In one experiment the test system is C57BL/6 wt-lean mice. Kind of experiment: TUDCA and leptin co-treatment in C57BL/6 wt-lean mice. As to conditions: leptin 1 mg/kg/day, TUDCA 150 mg/kg/day, 30 days. On the procedure: Following an initial acclimation period, eight week-old wt lean mice were treated with vehicle (VEH), Leptin (1 mg/kg/day) (L), TUDCA (150 mg/kg/day) (TUD) or leptin and TUDCA together for a period of 30 days. (a) Bodyweight (g), (b) % decrease in bodyweight, (c) Daily food intake (g) of the wt mice treated with VEH, LEP, TUD and TUD+LEP during the experimental period (n=4 in each group). Error bars are ±S.E.M., P values are determined by Student's t-test (*p<0.05, **p<0.01, ***p<0.001).
(§1) If the postulate that reduction of ER stress in the hypothalamus increases leptin sensitivity is true, chemical chaperones other than PBA should also create the same effect and sensitize the obese mice to leptin. TUDCA is a hydrophilic bile acid, which has a completely different structure than PBA, but has chemical chaperone activity in common^25. First, we investigated whether TUDCA can reduce ER stress in the hypothalamus of the ob/ob mice. For this purpose we treated ob/ob mice either with vehicle or TUDCA (150 mg/kg/day) for a period of 21 days and analyzed the hypothalamic PERK phosphorylation. […] To address this question we first pretreated the ob/ob mice with TUDCA (150 mg/kg/day) for 5 days and subsequently initiated leptin (1 mg/kg) treatment. […] Body weight of the ob/ob mice decreased further with leptin and TUDCA co-treatment and reached to 34.39±1.30 g from 50.55±1.14 g (Lep vs. TUD+Lep, p<0.001). […] Furthermore, to investigate the metabolic homeostasis in more detail, we placed the mice in metabolic cages. […] Heat generation was the same between the groups (FIG. 5j). Next, we analyzed the whole body fat composition by DEXA scan. […] Finally, analysis of lean mass has shown that none of the treatments lead to a significant change in this parameter ([…]). We additionally investigated the effect of TUDCA and leptin co-treatment on C57BL/6 wt-lean mice.

In experiment [1] the test system is ob/ob mice. Kind of experiment: TUDCA pretreatment and leptin in ob/ob mice (bodyweight, metabolic cage, DEXA). On the procedure: (a) Hypothalamic PERK phosphorylation (Thr980) after 21 days of vehicle or TUDCA (150 mg/kg/day) treatment. Following a five-day pretreatment with TUDCA (150 mg/kg/day) or vehicle, nine-ten week old ob/ob mice were treated either with leptin (1 mg/kg/day) or vehicle. (b) Body weight (g), (c) % decrease in body weight, (d) daily food intake of the ob/ob mice during 18 days of treatment period with the indicated regimens. (e) Blood glucose (mg/dl) levels at the 18th day of treatment. Metabolic cage studies were performed; (f) CO2 production (ml/kg/hr), (g) O2 consumption (ml/kg/hr), (h) Respiratory exchange ratio (VCO2/VO2), (i) X-axis ambulatory activity, (j) Heat generation (kcal/hr). Dexa scan analysis of (k) total fat amount (g), (l) fat % and (m) lean body mass (g). C57BL/6 male wt mice were kept on HFD feeding for 32 weeks and following a five day acclimation period were pretreated with TUDCA (150 mg/kg/day) for five days. At the end of pretreatment period intraperitoneal vehicle and leptin (1 mg/kg/day) treatments were started. (n) Body weight (g), (o) % decrease in bodyweight of the HFD-fed mice during the 16-day treatment. (n=6 for VEH, n=7 for Lep, n=7 for TUD, n=8 for TUD+Lep group). Error bars are ±S.E.M., P values are determined by Student's t-test. (*p<0.05, **p<0.01, ***p<0.001)
as §1
We next tested the efficacy of TUDCA as a leptin sensitizer in the HFD-induced obesity model. In this experiment we used 35 weeks old and C57BL/6 wt mice, which were kept on HFD-feeding for 32 weeks. We divided the mice into two groups for TUDCA and TUDCA-leptin co-treatment. Body weight of the mice in this cohort was between 35-52 g. We specifically chose the mice with the highest bodyweight for TUDCA and leptin co-treatment group to investigate whether leptin will become effective in these severely obese mice when administered along with the TUDCA. The initial body weight of the TUDCA group was 38.33±1.16 (g) and TUDCA+leptin group was 48.46±1.82 (g) (FIG. 5n). […]

Experiment [2] has as its system ob/ob mice. Put plainly: PBA pretreatment and leptin administration in ob/ob mice. As to conditions: for initial body weight: vehicle or PBA pretreated. On the procedure: Nine-week old lean wt and ob/ob mice were orally treated with either PBA (1 g/kg/day) or vehicle (VEH) for 26 days and PERK (Thr980) phosphorylation is examined in the hypothalamus extracts with direct immunoblotting. (B) Ten week-old wt lean and ob/ob mice were intraperitoneally injected with leptin (0.1 mg/kg) after six-hour starvation. Hypothalami were removed 30 minutes after the injections, and pStat3^Tyr705 and total Stat3 levels were examined. (C) Nine-week old lean wt and ob/ob mice were orally treated with PBA (1 g/kg/day) for 10 days. Following the pretreatment period, leptin-deficient ob/ob mice were either administered with VEH or with different doses of leptin through the intraperitoneal route. The effect of VEH or PBA administration on (C) bodyweight (g), (D) percent decrease in bodyweight and (E) 24-hour food intake (n=3 for VEH and n=4 PBA-treated group). Effect of 5 mg/kg/day leptin administration on (F) bodyweight, (G) percent decrease in bodyweight and (H) 24-hour food intake in VEH- or PBA-treated ob/ob mice (n=3 for VEH and n=4 PBA-treated group). Analysis of the same parameters (body weight, percent decrease in bodyweight and 24-hour food intake) in (I, J, K) 1 mg/kg/day and (L, M, N) 0.1 mg/kg/day leptin-treated mice (n=3 for VEH and n=4 PBA-treated group). Data presented as means±SEM (*p<0.05, **p<0.01, ***p<0.001).
To test whether reduction of ER stress will increase leptin sensitivity of the ob/ob mice, we orally administered PBA or vehicle for 10 days as a pretreatment. Following this period, daily leptin injections (IP) were given at doses ranging from 0.01 mg/kg/day to 5 mg/kg/day. […]

Setting [3] is: leptin 1 mg/kg/day IP, vehicle or PBA (1 g/kg/day) pretreated.
Where [4] appears, read: leptin 5 mg/kg/day IP, 16 days, vehicle or PBA (1 g/kg/day) pretreated.
Setting [5] is: oral PBA 1 g/kg/day alone vs vehicle.

Regarding `C[C@H](CCC(=O)NCCS(=O)(=O)O)[C@H]1CC[C@H]2[C@@H]3[C@@H](O)C[C@@H]4C[C@H](O)CC[C@]4(C)[C@H]3CC[C@]12C` [TUDCA, tauroursodeoxycholic acid], in the experiment on C57BL/6 wt-lean mice, the body weight entry was “did not observe any significant changes” and the food intake result was “did not observe any significant changes”. The blood glucose levels entry in the experiment on ob/ob mice [1] (18th day of treatment, TUDCA 150 mg/kg/day, leptin 1 mg/kg/day) is on record as “lowered”. For the same molecule, the body weight result with ob/ob mice [1] (TUDCA 150 mg/kg/day alone) is reported as “did not decrease”.
As to “leptin: adipocyte-derived hormone that suppresses appetite”, the initial body weight turned out to be 57.10 ± 0.58 g in the experiment on ob/ob mice [2] (before leptin 1 mg/kg/day); 56 ± 1.16 g with ob/ob mice [2] (before leptin 5 mg/kg/day); 50.50 ± 0.55 g in the experiment on ob/ob mice [1] (before leptin 1 mg/kg, with or without TUDCA 150 mg/kg/day). Besides, the “effect on body weight” value with ob/ob mice [2] (leptin 0.1 mg/kg/day IP alone (vehicle pretreated)) is listed as “did not significantly reduce”. Besides, the “body weight after treatment” value in the experiment on ob/ob mice [2] (setting [3]) was determined as 46.61 ± 0.52 g; in the experiment on ob/ob mice [2] (setting [4]), 41.13 ± 2.35 g; with ob/ob mice [1] (leptin 1 mg/kg/day, 18 days, with or without TUDCA 150 mg/kg/day (5 days pretreatment)) it was 43.75 ± 0.22 g. For the same molecule, in the experiment with ob/ob mice [2] (setting [3]), the decrease in bodyweight is listed as 17.73%. Besides, the food intake result with ob/ob mice [2] (leptin 5 mg/kg/day IP after 10 days vehicle or PBA (1 g/kg/day) pretreatment) is recorded as “significantly inhibited”; with C57BL/6 wt-lean mice it was “did not observe any significant changes”. Further, the “decrease in bodyweight from the initial weight” value with ob/ob mice [2] (setting [4]) came to 27.33±2.65%. Further, in the experiment with C57BL/6 wt-lean mice, the body weight entry is “did not observe any significant changes”. In the experiment with ob/ob mice [1] (leptin 1 mg/kg/day, 18 days, with or without TUDCA 150 mg/kg/day), the “percent decrease from the initial body weight” value turned out to be 9.27±1.34%.
Take `O=C(O)CCCc1ccccc1` [PBA, 4-phenyl butyric acid]: the leptin sensitization result in the experiment on ob/ob mice [2] (PBA + 0.1 mg/kg/day leptin gives weight loss equivalent to 1 mg/kg/day leptin alone) is “ten-fold”. Also, in the experiment on ob/ob mice [2] (setting [5]), the body weight result is on record as “did not affect” and the food consumption result is on record as “did not affect”.
